Columns and labels:
Type in all cases: biochemical
papain = target: T1, papain (Carica papaya, UniProt P00784); assay: Inhibition of papain, incubation method; conditions: second-order rate constant, NI = no inhibition; for kinact/KI: pH 7.5, read-out: kobs/[I] papain
T1 sequence (P00784 134-345): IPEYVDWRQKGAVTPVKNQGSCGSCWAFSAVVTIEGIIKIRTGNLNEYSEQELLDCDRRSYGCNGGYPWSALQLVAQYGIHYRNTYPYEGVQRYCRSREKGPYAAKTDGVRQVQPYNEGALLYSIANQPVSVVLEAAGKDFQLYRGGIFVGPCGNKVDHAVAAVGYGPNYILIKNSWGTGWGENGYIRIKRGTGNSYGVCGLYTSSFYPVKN
Experimental: (§1) The release of 7-amino-4-methylcoumarin was monitored (λex=360 nm, λem=465 nm) using a Tecan Spectra Fluor microplate reader. Pseudo first-order inactivation rate constants were obtained from plots of In vt/vo versus time.
The incubation method was also used for papain. The inhibition incubation buffer for papain was 50 mM Hepes buffer at pH 7.5, containing 2.5 mM DTT and 2.5 mM EDTA. The assay used the substrate Z-Phe-Arg-pNA (53.7 μM) in the same buffer. The approximate concentration of papain added to the incubation buffer was 0.29 mg/mL. The release of p-nitroanilide was monitored at 405 nm with a Molecular Devices Thermomax microplate reader.

cathepsin B = cathepsin B (Homo sapiens, UniProt P07858); assay: Inhibition of cathepsin B, incubation method; conditions: second-order rate constant, NI = no inhibition; for kinact/KI: pH 6, read-out: kobs/[I] cathepsin B
Text: as §1

caspase-3 = target: T2, caspase-3 (Homo sapiens, UniProt P42574); assay: Caspase-3 progress curve assay; conditions: substrate Z-DEVD-AFC; NI = no inhibition
T2 construct: made in house; host or cells: E. coli
T2 sequence (P42574 29-175 limits assumed): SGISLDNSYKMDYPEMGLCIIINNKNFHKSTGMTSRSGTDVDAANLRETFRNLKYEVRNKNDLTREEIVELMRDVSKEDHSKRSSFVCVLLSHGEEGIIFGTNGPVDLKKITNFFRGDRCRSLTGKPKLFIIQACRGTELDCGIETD
T2 sequence (P42574 176-277 limits assumed): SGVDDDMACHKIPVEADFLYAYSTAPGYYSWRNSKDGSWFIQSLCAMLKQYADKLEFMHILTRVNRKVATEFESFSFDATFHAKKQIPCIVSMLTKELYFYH
Experimental: Caspase-3, -6, and -8. Caspase-3, -6 and -8 were expressed in E. coli and purified according to methods previously described by Stennicke and Salvesen. Assays using the fluorogenic substrate Z-DEVD-AFC (λex=400 nm, λem=505 nm) were carried out on a Molecular Devices fMax fluorescence microplate reader. Inhibition rates and equilibria were determined by the progress curve method. The standard 100 μL reaction was started by adding enzyme to a mixture of substrate (final concentration of Z-DEVD-AFC 100 μM) and various amounts of inhibitor in buffer (50 mM Hepes, 100 mM NaCl, 0.1% (w/v) CHAPS, sucrose 10% (w/v), and 10 mM DTT, at pH 7.4). The caspases were pre-activated for 10 min at 37° C. in the presence of 10 mM DTT.

caspase-1 = target: T3, caspase-1 (Homo sapiens, UniProt P29466, D381E); assay: Caspase-1 progress curve assay; conditions: D381E variant, substrate Ac-YVAD-AMC, 30° C.
T3 construct: His tag (N); made in house; host or cells: E. coli
T3 sequence (P29466 120-297 limits assumed): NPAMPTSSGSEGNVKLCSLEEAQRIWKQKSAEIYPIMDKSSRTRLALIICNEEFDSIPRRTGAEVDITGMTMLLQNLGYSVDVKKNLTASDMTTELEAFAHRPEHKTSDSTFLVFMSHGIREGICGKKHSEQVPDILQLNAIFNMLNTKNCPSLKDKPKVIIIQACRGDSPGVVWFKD
T3 sequence (P29466 317-404 D381E limits assumed): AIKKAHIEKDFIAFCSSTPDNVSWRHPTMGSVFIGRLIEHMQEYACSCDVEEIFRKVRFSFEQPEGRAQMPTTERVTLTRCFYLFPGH
Text: Caspase-1. The preparation of the autolytically stable caspase-1 variant used in these studies has been described previously. Briefly, the variant contains a mutation (D381E) which renders it resistant to autolytic inactivation, but has no detectable affect on enzyme activity as compared to the naturally occurring enzyme. The enzyme variant was expressed in E. coli, purified first by immobilized metal chromatography via the N-terminal N-His tag, treated with excess oxidized glutathione to stabilize the reactive thiolate, and then re-purified by size-exclusion chromatography.
Inhibition data was measured using the progress curve assay method. Serial dilutions of each compound were prepared using an initial 8-fold dilution of a DMSO stock into HGE (100 mM HEPES,20% glycerol v/v, 0.5 mM EDTA), followed by seven serial two-fold dilutions into HGE and 12.5% DMSO, thus maintaining constant DMSO through the dilution series. Ten μL of diluted stocks or of vehicle (HGE and 12.5% DMSO) were placed in triplicate onto a 96-well microtiter plate, allowing several compounds to be tested on each plate. The plate was covered to minimize evaporation, and the plate was pre-warmed to 30° C. for 20 minutes. Enzyme was diluted into 10.0 mL of assay buffer (HGE, 5 mM DTT, plus 15 μM Ac-YVAD-AMC, 2 nM approximate final enzyme concentration), and this activated reaction mixture was added to the plate at 90 μL/well. Progress of substrate hydrolysis was monitored for 900 s in a LabSystems (Needham, Mass.) Fluoroskan Ascent fluorescent plate-reader using 385 and 460 nm excitation and emission filters, respectively, and a photomultiplier gain setting of 10. Triplicate curves were averaged and fit by nonlinear regression to the equation for irreversible inactivation shown below.
[formula] where F0 was routinely fixed to zero, since fluorescence values were always adjusted to an origin of 0. The second order rate constant kon (M^−1s^−1) was obtained from the slopes by linear regression, and errors represent the standard deviation of the regression slope.

k2 caspase-3 (caspase-3) [M⁻¹ s⁻¹]	k2 caspase-1 (caspase-1) [M⁻¹ s⁻¹]	SMILES	other results
3210 ± 315	25730	CCOC(=O)[C@H]1O[C@@H]1C(=O)N(CC(=O)O)NC(=O)[C@@H](NC(=O)[C@H](CCC(=O)O)NC(=O)[C@H](CC(C)C)NC(=O)OCc1ccccc1)[C@@H](C)O [26c (S,S), (2S,3S)-3-(N^2-(N-Benzyloxycarbonylleucylglutamylthreonyl)-N^1-carboxymethylhydrazinocarbonyl)oxirane-2-carboxylic Acid Ethyl Ester]	kinact/KI (papain): 0.47 M⁻¹ s⁻¹
3520 ± 600	43500 ± 2150	CC(C)C[C@H](NC(=O)OCc1ccccc1)C(=O)N[C@@H](CCC(=O)O)C(=O)N[C@H](C(=O)NN(CC(=O)O)C(=O)[C@H]1O[C@@H]1C(=O)OCc1ccccc1)[C@@H](C)O [26d, (2S,3S)-3-(N^2-(N-Benzyloxycarbonylleucylglutamylthreonyl)-N^1-carboxymethylhydrazinocarbonyl)oxirane-2-carboxylic Acid Benzyl Ester]	
9545 ± 960	45788	CC[C@H](C)[C@H](NC(=O)OCc1ccccc1)C(=O)N[C@@H](CCC(=O)O)C(=O)N[C@H](C(=O)NN(CC(=O)O)C(=O)[C@H]1O[C@@H]1C(=O)OCc1ccccc1)[C@@H](C)O [27d (S,S), (2S,3S)-3-(N^1-(N-Benzyloxycarbonylisoleucylglutamylthreonyl)-N^1-carboxymethylhydrazinocarbonyl)oxirane-2-carboxylic Acid Benzyl Ester]	
1915200 ± 209200	54690 ± 15913	CC(C)[C@H](NC(=O)[C@H](CCC(=O)O)NC(=O)[C@H](CC(=O)O)NC(=O)OCc1ccccc1)C(=O)NN(CC(=O)O)C(=O)[C@H]1O[C@@H]1C(=O)OCc1ccccc1 [25d, (2S,3S)-3-(N^2-(N-Benzyloxycarbonylaspartylglutamylvalyl)-N^1-carboxymethylhydrazinocarbonyl)oxirane-2-carboxylic Acid Benzyl Ester]	

Further lines, the compound ahead of its results:

SMILES	k2 caspase-3 (caspase-3) [M⁻¹ s⁻¹]	k2 caspase-1 (caspase-1) [M⁻¹ s⁻¹]	other results
O=C(N[C@@H](Cc1ccccc1)C(=O)NN(Cc1ccccc1)C(=O)[C@@H]1O[C@H]1CCc1ccccc1)OCc1ccccc1 (relative stereo) [Cbz-Phe-APhe-trans-EP-CH2CH2Ph, trans-3-(N^2-(N-3-Benzyloxyphenylalanyl)-N^1-benzylhydrazinocarbonyl)-2-(2-phenylethyl)oxirane]			kobs/[I] papain (papain): 0.5 M⁻¹ s⁻¹
CCOC(=O)[C@@H]1O[C@H]1C(=O)N(CC(C)C)NC(=O)[C@H](CC(C)C)NC(=O)[C@H](CC(C)C)NC(=O)OCc1ccccc1 [Cbz-Leu-Leu-ALeu-(2R, 3R)-EP-COOEt, (2R,3R)-3-(N^2-(N-Benzyloxycarbonylleucylleucyl)-N^1-isobutylhydrazinocarbonyl)oxirane-2-carboxylic Acid Ethyl Ester]			kinact/KI (papain): 20.6 M⁻¹ s⁻¹
CCOC(=O)[C@@H]1O[C@H]1C(=O)N(CC(N)=O)NC(=O)[C@H](C)NC(=O)[C@H](C)NC(=O)OCc1ccccc1 (relative stereo) [Cbz-Ala-Ala-AAsn-trans-EP-COOEt, trans-3-(N^2-(N-Benzyloxycarbonylalanylalanyl)-N^1-carbamoylmethylhydrazinocarbonyl)oxirane-2-carboxylic Acid Ethyl Ester]			kinact/KI (cathepsin B): 1.27 M⁻¹ s⁻¹
CCOC(=O)[C@@H]1O[C@H]1C(=O)N(CC(=O)O)NC(=O)[C@@H](NC(=O)[C@H](CCC(=O)O)NC(=O)[C@H](CC(C)C)NC(=O)OCc1ccccc1)[C@@H](C)O [26c (R,R), (2R,3R)-3-(N^2-(N-Benzyloxycarbonylleucylglutamylthreonyl)-N^1-carboxymethylhydrazinocarbonyl)oxirane-2-carboxylic Acid Ethyl Ester]	3250 ± 160	19570	kinact/KI (papain): 0.24 M⁻¹ s⁻¹
CCOC(=O)[C@H]1O[C@@H]1C(=O)N(CCC(N)=O)NC(=O)[C@H](Cc1ccccc1)NC(=O)[C@H](CC(C)C)NC(=O)OCc1ccccc1 [Cbz-Leu-Phe-AGln-(2S, 3S)-EP-COOEt, (2S,3S)-3-(N^2-(N-Benzyloxycarbonylleucylphenylalanyl)-N^1-carbamoylethylhydrazinocarbonyl)oxirane-2-carboxylic Acid Ethyl Ester]			kinact/KI (cathepsin B): 4.73 M⁻¹ s⁻¹
CCCCC(NC(=O)OC(C)(C)C)C(=O)NN(CCc1ccccc1)C(=O)C1OC1CCc1ccccc1 (stereo not drawn) [Boc-Nle-AHph-trans-EP-CH2CH2Ph, Boc-Nle-AHph-(trans)-EP-CH2CH2Ph]			kobs/[I] papain (papain): 0.5 M⁻¹ s⁻¹
O=C(OCc1ccccc1)N(NCc1ccccc1)C(=O)[C@@H]1O[C@H]1CCc1ccccc1 (relative stereo) [Cbz-APhe-trans-EP-CH2CH2Ph, trans-3-(N^2-Benzyl-N^1-benzyloxycarbonylhydrazinocarbonyl)-2-(2-phenylethyl)oxirane]			kinact/KI (papain): 0.92 M⁻¹ s⁻¹
CC(C)[C@H](NC(=O)CCc1ccccc1)C(=O)N[C@@H](C)C(=O)NN(CC(=O)O)C(=O)[C@H]1O[C@@H]1C(=O)OCc1ccccc1 [23d (S,S)]	1470 ± 40	52140 ± 5295	kobs/[I] cathepsin B (cathepsin B): 0.81 M⁻¹ s⁻¹
CCC(NC(=O)OC(C)(C)C)C(=O)NN(CCc1ccccc1)C(=O)[C@@H]1O[C@H]1CCc1ccccc1 (relative stereo) [Boc-Abu-AHph-trans-EP-CH2CH2Ph, trans-3-(N^2-(N-tert-Butoxycarbonyl-α-aminobutanoyl)-N^1-phenylethylhydrazinocarbonyl)-2-(2-phenylethyl)oxirane]			kobs/[I] papain (papain): 0.2 M⁻¹ s⁻¹
CC(C)CN(NC(=O)[C@H](Cc1ccccc1)NC(=O)OCc1ccccc1)C(=O)[C@@H]1O[C@H]1CCc1ccccc1 (relative stereo) [Cbz-Phe-ALeu-trans-EP-CH2CH2Ph]			kobs/[I] papain (papain): 0.7 M⁻¹ s⁻¹
C[C@H](NC(=O)OCc1ccccc1)C(=O)N[C@@H](C)C(=O)NN(CC(N)=O)C(=O)[C@@H]1O[C@H]1C(=O)OCc1ccccc1 (relative stereo) [Cbz-Ala-Ala-AAsn-trans-EP-COOCH2Ph, trans-3-(N^2-(N-Benzyloxycarbonylalanylalanyl)-N^1-carbamoylmethylhydrazinocarbonyl)oxirane-2-carboxylic Acid Benzyl Ester]			kinact/KI (cathepsin B): 1.09 M⁻¹ s⁻¹

— patent publication US7056947B2, “Aza-peptide epoxides” (Georgia Tech Research Corp., priority 2002, dated 2006)
